Earlier results on 1 compound are cited in patent US20060120971A1, “Agents and methods for administration to the central nervous system” (SIGNUM PHARMACEUTICALS, INC., priority 2004, published 2006).

For this data set, the target named is T1, carnitine palmitoyltransferase-1 (CPT1) (Rattus norvegicus, UniProt P32198).
T1 construct: decrease levels of CPT1 activity and increase the levels of LC-CoAs in the hypothalamus of healthy rats; host or cells: endogenous enzyme in brain/hypothalamus of conscious Sprague-Dawley rats (in vivo, ICV infusion)
T1 sequence (P32198 1-773): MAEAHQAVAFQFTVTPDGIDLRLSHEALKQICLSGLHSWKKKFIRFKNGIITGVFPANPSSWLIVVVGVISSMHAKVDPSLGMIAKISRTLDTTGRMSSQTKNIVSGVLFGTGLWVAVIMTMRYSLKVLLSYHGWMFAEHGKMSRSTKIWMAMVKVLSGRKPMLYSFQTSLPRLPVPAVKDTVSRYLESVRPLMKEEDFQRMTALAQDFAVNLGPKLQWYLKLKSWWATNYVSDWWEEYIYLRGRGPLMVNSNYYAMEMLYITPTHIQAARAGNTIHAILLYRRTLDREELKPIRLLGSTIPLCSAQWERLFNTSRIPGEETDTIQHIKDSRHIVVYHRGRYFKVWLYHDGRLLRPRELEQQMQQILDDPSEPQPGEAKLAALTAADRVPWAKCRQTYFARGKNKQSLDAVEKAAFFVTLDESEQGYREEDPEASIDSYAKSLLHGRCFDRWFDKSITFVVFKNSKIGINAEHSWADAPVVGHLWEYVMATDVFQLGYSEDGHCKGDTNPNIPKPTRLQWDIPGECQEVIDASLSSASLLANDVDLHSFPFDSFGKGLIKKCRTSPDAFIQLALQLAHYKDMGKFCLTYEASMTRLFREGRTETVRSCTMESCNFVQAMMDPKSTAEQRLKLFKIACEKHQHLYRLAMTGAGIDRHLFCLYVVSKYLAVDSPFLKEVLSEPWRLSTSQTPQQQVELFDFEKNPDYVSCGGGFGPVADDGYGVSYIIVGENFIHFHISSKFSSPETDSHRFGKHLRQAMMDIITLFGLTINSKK

Where [1] appears, read: healthy conscious Sprague-Dawley rats, continuous ICV infusion into third cerebral ventricle.

As to `CCCCCCCCCCCCCCNC(=O)N[C@H](CC(=O)[O-])C[N+](C)(C)C` [ST1326, R-4-trimethylammonium-3-(tetradecylcarbamoyl)-aminobutyrate], the CPT1 activity result (brain of healthy rats, ICV infusion) is on record as “effectively decreasing”. Under setting [1], the endogenous glucose production entry is “reduced” and the food intake result was “diminished”. For the same compound, for the setting “hypothalamus of healthy rats, ICV infusion”, the “hypothalamic concentrations of LC-CoA” value is “substantially increasing”.
